# Test results taken from ChEMBL document CHEMBL1129205, “Small peptide inhibitors of 47 mediated MAdCAM-1 adhesion to lymphocytes” (Bioorg Med Chem Lett, 1996).
# Test system: HuT78
# Assay: Compound was tested for inhibition of MAdCAM-1/alpha-4 beta-7 mediated cell adhesion to T-cell lymphoma, HUT78 cells
# Assay type: functional, cell-based
# Settings: Homo sapiens
row,Compound,IC50
1,CC(C)C[C@H](NC(=O)[C@H](CO)NC(=O)[C@@H](NC(=O)[C@H](CC(=O)O)NC(=O)[C@H](CC(C)C)NC(=O)CCCc1ccc2ccc3cccc4ccc1c2c34)[C@@H](C)O)C(N)=O,5 µM
2,CC(C)C[C@H](NC(=O)[C@H](CO)NC(=O)[C@@H](NC(=O)[C@H](CC(=O)O)NC(=O)[C@H](CC(C)C)NC(=O)C1c2ccccc2-c2ccccc21)[C@@H](C)O)C(N)=O,18.6 µM
3,CC(C)C[C@H](NC(=O)[C@H](CO)NC(=O)[C@@H](NC(=O)[C@H](CC(=O)O)NC(=O)[C@H](CC(C)C)NC(=O)C(c1ccccc1)c1ccccc1)[C@@H](C)O)C(N)=O,13.4 µM
4,CC(C)C[C@H](NC(=O)[C@H](CO)NC(=O)[C@@H](NC(=O)[C@H](CC(=O)O)NC(=O)[C@H](CC(C)C)NC(=O)C(C1CCCCC1)C1CCCCC1)[C@@H](C)O)C(N)=O,> 1000 µM
5,CCCC(CCC)C(=O)N[C@@H](CC(C)C)C(=O)N[C@@H](CC(=O)O)C(=O)N[C@H](C(=O)N[C@@H](CO)C(=O)N[C@@H](CC(C)C)C(N)=O)[C@@H](C)O,> 1000 µM
6,CC(C)C[C@H](NC(=O)[C@H](CO)NC(=O)[C@@H](NC(=O)[C@H](CC(=O)O)NC(=O)[C@H](CC(C)C)NC(=O)Cc1ccccc1)[C@@H](C)O)C(N)=O,> 1000 µM

# Test system: not listed separately
# Assay: Inhibition of MAdCAM-1/alpha-4 beta7-mediated cell adhesion to T-cell lymphoma, HUT78 cells at 500 uM
# Assay type: functional
# Settings: not given
row,Compound,Inhibition
1,CC(=O)N[C@@H](CCCN=C(N)N)C(=O)NCC(=O)N[C@@H](CC(C)C)C(=O)N[C@@H](CC(=O)O)C(=O)N[C@H](C(=O)N[C@@H](CO)C(=O)N[C@@H](CC(C)C)C(=O)NCC(N)=O)[C@@H](C)O (stereo in doubt; 4),75%
2,CC(=O)N[C@@H](CCCN=C(N)N)C(=O)NCC(=O)N[C@@H](CC(C)C)C(=O)N[C@@H](CC(=O)O)C(=O)N[C@H](C(=O)N[C@@H](CO)C(=O)N[C@@H](CC(C)C)C(=O)NCC(N)=O)[C@@H](C)O (stereo in doubt; 10),36%

# Same assay, conditions: HuT78
row,Compound,inhibition at 500 µM
1,CC(C)C[C@H](NC(=O)[C@H](CO)NC(=O)[C@@H](NC(=O)[C@H](CC(=O)O)NC(=O)[C@H](CC(C)C)NC(=O)CCCc1ccc2ccc3cccc4ccc1c2c34)[C@@H](C)O)C(N)=O,5%
2,CC(C)C[C@H](NC(=O)[C@H](CO)NC(=O)[C@@H](NC(=O)[C@H](CC(=O)O)NC(=O)[C@H](CC(C)C)NC(=O)C1c2ccccc2-c2ccccc21)[C@@H](C)O)C(N)=O,18.6%
3,CC(C)C[C@H](NC(=O)[C@H](CO)NC(=O)[C@@H](NC(=O)[C@H](CC(=O)O)NC(=O)[C@H](CC(C)C)NC(=O)C(c1ccccc1)c1ccccc1)[C@@H](C)O)C(N)=O,13.4%
4,CC(=O)N[C@@H](CC(C)C)C(=O)N[C@H](CC(=O)O)C(=O)N[C@H](C(=O)N[C@@H](CO)C(=O)N[C@@H](CC(C)C)C(N)=O)[C@@H](C)O,0%
5,Ac-AAASL-NH2,0%
6,Ac-ADTSL-NH2,3%
7,Ac-DTSLGSVQ-NH2,0%
8,Ac-GLDTSLGS-NH2,28%
9,Ac-HWRGLDTS-NH2,46%
10,Ac-HWRGLDTSLGSV-NH2,71%
11,Ac-LATSL-NH2,0%
12,Ac-LDTSLGSV-NH2,16%
13,Ac-LNTSL-NH2,0%
14,Ac-LYTSL-NH2,0%
15,Ac-RVHWAGLD-NH2,0%
16,Ac-RVHWRGLDTSLGSVQ-NH2,88%
17,Ac-VHWRGLDT-NH2,48%
18,Ac-WRGLDTSL-NH2,52%
19,Ac-WRGLDTSLGS-NH2,71%
